From patent US8791102B2, “Acetanilide sphingosine-1-phosphate receptor antagonists” (Exelixis, Inc., priority 2008, dated 2014) come the findings set out here.

pIC50: −log10 of the molar value.

This experiment deals with T1, human S1P1 receptors (Homo sapiens, UniProt P21453).
T1 construct: host or cells: HEK293
T1 sequence (P21453 whole entry): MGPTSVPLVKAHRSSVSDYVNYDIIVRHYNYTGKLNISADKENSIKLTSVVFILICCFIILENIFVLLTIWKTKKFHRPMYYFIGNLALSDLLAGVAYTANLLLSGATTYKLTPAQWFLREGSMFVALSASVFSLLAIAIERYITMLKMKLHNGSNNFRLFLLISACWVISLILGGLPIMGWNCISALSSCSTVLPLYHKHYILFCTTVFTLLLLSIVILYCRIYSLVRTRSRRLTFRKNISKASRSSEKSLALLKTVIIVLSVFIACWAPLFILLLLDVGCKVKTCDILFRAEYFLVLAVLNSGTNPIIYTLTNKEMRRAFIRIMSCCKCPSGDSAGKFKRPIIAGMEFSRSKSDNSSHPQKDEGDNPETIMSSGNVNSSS
The experiment in a line: S1P1R antagonist assay (fluorescent membrane potential dye, cAMP readout). To be noted: HEK293 cells expressing human S1P1 receptors and CNG channel; 500 nM NECA; S1P1R agonist 10 nM; 90 minutes; read-out: EC50 or IC50 value. Type of experiment: cell-based.
Regarding `O=C(Nc1ccc(Oc2ccc(F)cc2)cc1)[C@@H]1C[C@@H](Cc2ccccc2)CN1C(=O)CN1CCOCC1` [Compound 116, (2S,4R)-4-benzyl-N-(4-(4-fluorophenoxy)phenyl)-1-(2-morpholinoacetyl)pyrrolidine-2-carboxamide], the pIC50 was at least 6.52.

Turning to `O=C(Cn1cncn1)N[C@@H](COCc1ccccc1)C(=O)Nc1ccc(Oc2ccc(F)cc2)cc1` [Compound 149, (S)-2-(2-(1H-1,2,4-triazol-1-yl)acetamido)-3-benzyloxy-N-(4-(4-fluorophenoxy)phenyl)propanamide], the pIC50 was at least 6.52. `COc1cc(C(=O)NC(COCc2ccccc2)C(=O)Nc2ccc(Oc3ccccc3)cc2)cc(OC)c1OC` (centres unmarked) [Compound 291, 3,4,5-tris(methyloxy)-N-(2-oxo-1-{[(phenylmethyl)oxy]methyl}-2-{[4-(phenyloxy)phenyl]amino}ethyl)benzamide]: the pIC50 is below 6.00.

On to `O=C(Nc1ccc(Oc2ccc(F)cc2)cc1)[C@@H]1C[C@@H](Cc2ccccc2Cl)CN1C(=O)Cn1nccn1` [Compound 56, (2S,4R)-1-(2-(2H-1,2,3-triazol-2-yl)acetyl)-4-(2-chlorobenzyl)-N-(4-(4-fluorophenoxy)phenyl)pyrrolidine-2-carboxamide], for which the pIC50 is at least 6.52. As for `O=C(NC(COCc1ccccc1)C(=O)Nc1ccc(Oc2ccccc2)cc1)c1cc(F)cc(C(F)(F)F)c1` (centres unmarked) [Compound 398, 3-fluoro-N-(2-oxo-1-{[(phenylmethyl)oxy]methyl}-2-{[4-(phenyloxy)phenyl]amino}ethyl)-5-(trifluoromethyl)benzamide], the figure is below 6.00; as for `O=C(Nc1ccc(Oc2ccc(F)cc2)cc1)[C@@H]1C[C@@H](N2Cc3ccccc3C2)CN1C(=O)Cn1cncn1` [Compound 260, (2S,4R)-1-(2-(1H-1,2,4-triazol-1-yl)acetyl)-N-(4-(4-fluorophenoxy)phenyl)-4-(isoindolin-2-yl)pyrrolidine-2-carboxamide], 6.00 to 6.52; as for `CC(C(=O)NC(COCc1ccccc1)C(=O)Nc1ccc(Oc2ccccc2)cc1)c1ccccc1` (centres unmarked) [Compound 359, N-(2-oxo-1-{[(phenylmethyl)oxy]methyl}-2-{[4-(phenyloxy)phenyl]amino}ethyl)-2-phenylpropanamide], below 6.00. Turning to `O=C(NC(COCc1ccccc1)C(=O)Nc1ccc(Oc2ccccc2)cc1)c1c[nH]c2ccccc12` (centres unmarked) [Compound 341, N-(2-oxo-1-{[(phenylmethyl)oxy]methyl}-2-{[4-(phenyloxy)phenyl]amino}ethyl)-1H-indole-3-carboxamide], the pIC50 was below 6.00. Turning to `O=C(Nc1ccc(Oc2ccc(F)cc2)cc1)[C@@H]1C[C@@H](Cc2ccc(F)cc2Cl)CN1C(=O)Cn1nccn1` [Compound 5, (2S,4R)-1-(2-(2H-1,2,3-triazol-2-yl)acetyl)-4-(2-chloro-4-fluorobenzyl)-N-(4-(4-fluorophenoxy)phenyl)pyrrolidine-2-carboxamide], the pIC50 was at least 6.52. On to `O=C(Nc1ccc(Oc2ccc(F)cc2)cc1)[C@@H]1C[C@H](NCc2ccccc2)CN1C(=O)Cn1cncn1` [Compound 80, (2S,4S)-1-(2-(1H-1,2,4-triazol-1-yl)acetyl)-4-(benzylamino)-N-(4-(4-fluorophenoxy)phenyl)pyrrolidine-2-carboxamide], for which the pIC50 is 6.00 to 6.52. The same measure for `CC1CCCN(CC(=O)N[C@@H](COCc2ccccc2)C(=O)Nc2ccc(Oc3ccc(F)cc3)cc2)C1` (stereo partly drawn) [Compound 46, (2S)-3-(benzyloxy)-N-(4-(4-fluorophenoxy)phenyl)-2-(2-(3-methylpiperidin-1-yl)acetamido)propanamide]: below 6.00; for `COCCN1CCN(CC(=O)N[C@@H](COCc2ccccc2)C(=O)Nc2ccc(Oc3ccc(F)cc3)cc2)CC1` [Compound 241, (S)-3-(benzyloxy)-N-(4-(4-fluorophenoxy)phenyl)-2-(2-(4-(2-methoxyethyl)piperazin-1-yl)acetamido)propanamide]: 6.00 to 6.52; for `O=C(NC(COCc1ccccc1)C(=O)Nc1ccc(Oc2ccccc2)cc1)c1ccc2[nH]ccc2c1` (centres unmarked) [Compound 20, N-(3-(benzyloxy)-1-oxo-1-(4-phenoxyphenylamino)propan-2-yl)-1H-indole-5-carboxamide]: below 6.00.

On to `O=C(Nc1ccc(Oc2ccccc2)cc1)C(COCc1ccccc1)NC(=O)[C@H](O)Cc1ccccc1` (stereo partly drawn) [Compound 27, 3-(benzyloxy)-2-((R)-2-hydroxy-3-phenylpropanamido)-N-(4-phenoxyphenyl)propanamide], for which the pIC50 is below 6.00.

Turning to `O=C(CN1Cc2ccccc2C1)N[C@@H](COCc1ccccc1)C(=O)Nc1ccc(Oc2ccc(F)cc2)cc1` [Compound 240, (S)-3-(benzyloxy)-N-(4-(4-fluorophenoxy)phenyl)-2-(2-(isoindolin-2-yl)acetamido)propanamide], the pIC50 was 6.00 to 6.52.

On to `COc1ccc(C(=O)NC(COCc2ccccc2)C(=O)Nc2ccc(Oc3ccccc3)cc2)cc1` (centres unmarked) [Compound 270, 4-(methyloxy)-N-(2-oxo-1-{[(phenylmethyl)oxy]methyl}-2-{[4-(phenyloxy)phenyl]amino}ethyl)benzamide], for which the pIC50 is below 6.00.

Regarding `O=C(NC(COCc1ccccc1)C(=O)Nc1ccc(Oc2ccccc2)cc1)c1cccc(Cl)c1F` (centres unmarked) [Compound 299, 3-chloro-2-fluoro-N-(2-oxo-1-{[(phenylmethyl)oxy]methyl}-2-{[4-(phenyloxy)phenyl]amino}ethyl)benzamide], the pIC50 was below 6.00.
